The results in this text go back to patent US20240199587A1, “HETEROCYCLIC COMPOUNDS” (Hoffmann-La Roche Inc., priority 2021, published 2024).

The structures appear in SMILES notation.

The test concerns the target T1, MAGL (Homo sapiens, UniProt Q99685).
T1 sequence (Q99685 1-303): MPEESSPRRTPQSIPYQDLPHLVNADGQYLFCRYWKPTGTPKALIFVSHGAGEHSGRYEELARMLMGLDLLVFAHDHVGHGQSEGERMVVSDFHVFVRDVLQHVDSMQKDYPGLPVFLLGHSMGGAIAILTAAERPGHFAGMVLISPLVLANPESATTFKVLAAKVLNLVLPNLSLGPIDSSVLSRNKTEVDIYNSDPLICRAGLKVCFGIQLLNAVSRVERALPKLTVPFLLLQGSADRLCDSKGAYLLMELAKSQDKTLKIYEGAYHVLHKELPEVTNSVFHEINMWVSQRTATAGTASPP
The test can be described thus: 2-AG assay (MAGL inhibitory activity, hydrolysis of 2-arachidonoylglycerol to arachidonic acid followed by mass spectrometry). The test is classed as biochemical. The following applies: 8 μM 2-arachidonoylglycerol, 15 min pre-incubation, 30 min incubation at RT, RapidFire MS readout. Summed up: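 Arachidonic acid released from 8 μM 2-arachidonoylglycerol was quantified by online SPE triple-quadrupole MS (negative ESI, 303.1→259.1), normalised to d8-arachidonic acid internal standard. Reaction ran 30 min at RT after 15 min RT compound pre-incubation with […] MAGL in TRIS/EDTA/Tween-20 buffer, 2.5% DMSO.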
For orientation: IC50 means the concentration that gives 50% inhibition. Lower therefore signals higher potency. Turning to `CP(C)(=O)c1ccc(CC2CC3(C2)CN(C(=O)N2CC4(CC(n5cnc(C(F)(F)F)n5)C4)C2)C3)cc1` [Example 375, [6-[(4-dimethyl-phosphorylphenyl)methyl]-2-azaspiro[3.3]heptan-2-yl]-[6-[3-(trifluoromethyl)-1,2,4-triazol-1-yl]-2-azaspiro[3.3]heptan-2-yl]methanone], 12.7 nM corresponded to half-maximal inhibition (IC50).
As for `CP(C)(=O)c1ccc(CC2CC3(C2)CN(C(=O)N2CC4(CC(n5cnc(C6CC6)n5)C4)C2)C3)cc1` [Example 376, [6-(3-cyclopropyl-1,2,4-triazol-1-yl)-2-azaspiro[3.3]heptan-2-yl]-[6-[(4-dimethyl-phosphorylphenyl)methyl]-2-azaspiro[3.3]heptan-2-yl]methanone], the IC50 was 4.07 nM.
In the case of `CP(C)(=O)c1ccc(CC2CC3(C2)CN(C(=O)N2CC4(CC(n5cnc(C(F)(F)F)n5)C4)C2)C3)nc1` [Example 377, [6-[(5-dimethylphosphoryl-2-pyridyl)methyl]-2-azaspiro[3.3]heptan-2-yl]-[6-[3-(trifluoromethyl)-1,2,4-triazol-1-yl]-2-azaspiro[3.3]heptan-2-yl]methanone], the IC50 came out at 392 nM.
As for `CP(C)(=O)c1ccc(CC2CC3(C2)CN(C(=O)N2CC4(CC(n5cnc(C6CC6)n5)C4)C2)C3)nc1` [Example 378, [6-(3-cyclopropyl-1,2,4-triazol-1-yl)-2-azaspiro[3.3]heptan-2-yl]-[6-[(5-dimethylphosphoryl-2-pyridyl)methyl]-2-azaspiro[3.3]heptan-2-yl]methanone], the IC50 was found to be 106 nM.
For the molecule `CP(C)(=O)c1ccc(CN2CC3(C2)CN(C(=O)N2CC4(CC(n5cnc(C(F)(F)F)n5)C4)C2)C3)cc1` [Example 379, [6-[(4-dimethyl-phosphorylphenyl)methyl]-2,6-diazaspiro[3.3]heptan-2-yl]-[6-[3-(trifluoromethyl)-1,2,4-triazol-1-yl]-2-azaspiro[3.3]heptan-2-yl]methanone], the IC50 is 3350 nM.
The figure for `O=C(N1CC2(CC(Cc3ccc(F)cc3F)C2)C1)N1CC2(CC(c3cncc(F)c3)C2)C1` [Example 380, [6-[(2,4-difluorophenyl)methyl]-2-azaspiro[3.3]heptan-2-yl]-[6-(5-fluoro-3-pyridyl)-2-azaspiro[3.3]heptan-2-yl]methanone] is 0.57 nM; for `O=C(N1CC2(CC(Cc3ccc(OC(F)(F)F)nc3)C2)C1)N1CC2(CC(n3cnc(C4(O)CC4)n3)C2)C1` [Example 381] it is 0.44 nM; for `O=C(N1CC(C23CC(Cc4ccc(C(F)(F)F)nc4)(C2)C3)C1)N1CC2(CC(n3cnc(C4(O)CC4)n3)C2)C1` [Example 382, [6-[3-(1-hydroxycyclopropyl)-1,2,4-triazol-1-yl]-2-azaspiro[3.3]heptan-2-yl]-[3-[3-[[6-(trifluoromethyl)-3-pyridyl]methyl]-1-bicyclo[1.1.1]pentanyl]azetidin-1-yl]methanone] it is 52.4 nM.
`O=C(N1CC2(CC(Cc3ccc4[nH]ncc4n3)C2)C1)N1CC2(CC(n3cnc(C4(O)CC4)n3)C2)C1` [Example 383, [6-[3-(1-hydroxycyclopropyl)-1,2,4-triazol-1-yl]-2-azaspiro[3.3]heptan-2-yl]-[6-(1H-pyrazolo[4,3-b]pyridin-5-ylmethyl)-2-azaspiro[3.3]heptan-2-yl]methanone] registered an IC50 of 39.8 nM.
`O=C(N1CC(C23CC(Cc4nnc(C5CC5)[nH]4)(C2)C3)C1)N1CC2(CC(n3cnc(C4CC4)n3)C2)C1` [Example 384, [6-(3-cyclopropyl-1,2,4-triazol-1-yl)-2-azaspiro[3.3]heptan-2-yl]-[3-[3-[(5-cyclopropyl-4H-1,2,4-triazol-3-yl)methyl]-1-bicyclo[1.1.1]pentanyl]azetidin-1-yl]methanone] displayed an IC50 of 4.88 nM.
On to `CS(=O)(=O)c1ccc(CC2CC3(C2)CN(C(=O)N2CC4(CC(n5cnc(C6(O)CC6)n5)C4)C2)C3)cc1C(F)(F)F` [Example 385, [6-[3-(1-hydroxycyclopropyl)-1,2,4-triazol-1-yl]-2-azaspiro[3.3]heptan-2-yl]-[6-[[4-methylsulfonyl-3-(trifluoromethyl)phenyl]methyl]-2-azaspiro[3.3]heptan-2-yl]methanone], for which the IC50 is 1.25 nM.
In the case of `CS(=O)(=O)c1cc(Cl)ccc1-c1ccc(C2CN(C(=O)N3CC4(CC(c5ccc(C(F)(F)F)nc5)C4)C3)C2)cn1` [Example 386, [3-[6-(4-chloro-2-methylsulfonyl-phenyl)-3-pyridyl]azetidin-1-yl]-[6-[6-(trifluoromethyl)-3-pyridyl]-2-azaspiro[3.3]heptan-2-yl]methanone], the IC50 amounted to 142 nM.
Turning to `N#Cc1cc(C(F)(F)F)ncc1O[C@H]1CCC2(C1)CN(C(=O)N1CC3(CC(n4cnc(C5(O)CC5)n4)C3)C1)C2` [Example 387, 5-[[(6S)-2-[6-[3-(1-hydroxycyclopropyl)-1,2,4-triazol-1-yl]-2-azaspiro[3.3]heptane-2-carbonyl]-2-azaspiro[3.4]octan-6-yl]oxy]-2-(trifluoromethyl)pyridine-4-carbonitrile], the IC50 is 196 nM.
Take `O=C(N1CC2(CCC(Cc3ncc(F)cc3F)C2)C1)N1CC2(CC(n3cnc(C4(O)CC4)n3)C2)C1` (stereo not drawn) [Example 388, [6-[(3,5-difluoro-2-pyridyl)methyl]-2-azaspiro[3.4]octan-2-yl]-[6-[3-(1-hydroxycyclopropyl)-1,2,4-triazol-1-yl]-2-azaspiro[3.3]heptan-2-yl]methanone]: half-maximal inhibition (IC50) was put at 8.72 nM.
The figure for `O=C(N1CC2(CCC(Cc3ccc(C(F)(F)F)cn3)C2)C1)N1CC2(CC(n3cnc(C4(O)CC4)n3)C2)C1` (stereo not drawn) [Example 389, [6-[3-(1-hydroxycyclopropyl)-1,2,4-triazol-1-yl]-2-azaspiro[3.3]heptan-2-yl]-[6-[[5-(trifluoromethyl)-2-pyridyl]methyl]-2-azaspiro[3.4]octan-2-yl]methanone] is 8.68 nM; for `O=C(N1CC2(CC(Cc3ccc(F)cn3)C2)C1)N1CC2(CC(n3cnc(C4(O)CC4)n3)C2)C1` [Example 390, [6-[(5-fluoro-2-pyridyl)methyl]-2-azaspiro[3.3]heptan-2-yl]-[6-[3-(1-hydroxycyclopropyl)-1,2,4-triazol-1-yl]-2-azaspiro[3.3]heptan-2-yl]methanone] it is 30.1 nM.
With `O=C(N1CC2(CCN(Cc3ccc(C(F)(F)F)cn3)CC2)C1)N1CC2(CC(n3cnc(C4(O)CC4)n3)C2)C1` [Example 391, [6-[3-(1-hydroxycyclopropyl)-1,2,4-triazol-1-yl]-2-azaspiro[3.3]heptan-2-yl]-[7-[[5-(trifluoromethyl)-2-pyridyl]methyl]-2,7-diazaspiro[3.5]nonan-2-yl]methanone], the IC50 is 14.1 nM.
The molecule `O=C(N1CC2(CCN(Cc3ccc(C(F)(F)F)nc3)CC2)C1)N1CC2(CC(n3cnc(C4(O)CC4)n3)C2)C1` [Example 392, [6-[3-(1-hydroxycyclopropyl)-1,2,4-triazol-1-yl]-2-azaspiro[3.3]heptan-2-yl]-[7-[[6-(trifluoromethyl)-3-pyridyl]methyl]-2,7-diazaspiro[3.5]nonan-2-yl]methanone] came in with an IC50 of 197 nM.
With `COc1cc(C(F)(F)F)ccc1CNC1CN(C(=O)N2CC3(CC(n4cnc(C5(O)CC5)n4)C3)C2)C1` [Example 393, [6-[3-(1-hydroxycyclopropyl)-1,2,4-triazol-1-yl]-2-azaspiro[3.3]heptan-2-yl]-[3-[[2-methoxy-4-(trifluoromethyl)phenyl]methylamino]azetidin-1-yl]methanone], 401 nM corresponded to half-maximal inhibition (IC50).
In turn, `CC1(Cc2nnc(-c3ccc(C4CN(C(=O)N5CC6(CC(n7cnc(C8(O)CC8)n7)C6)C5)C4)cc3)[nH]2)CC1` [Example 394, [6-[3-(1-hydroxycyclopropyl)-1,2,4-triazol-1-yl]-2-azaspiro[3.3]heptan-2-yl]-[3-[4-[5-[(1-methylcyclopropyl)methyl]-4H-1,2,4-triazol-3-yl]phenyl]azetidin-1-yl]methanone] returned an IC50 of 43.7 nM.
As for `O=C(N1CC(C23CC(NCC4(C(F)(F)F)CC4)(C2)C3)C1)N1CC2(CC(n3cnc(C4(O)CC4)n3)C2)C1` [Example 395, [6-[3-(1-hydroxycyclopropyl)-1,2,4-triazol-1-yl]-2-azaspiro[3.3]heptan-2-yl]-[3-[3-[[1-(trifluoromethyl)cyclopropyl]methylamino]-1-bicyclo[1.1.1]pentanyl]azetidin-1-yl]methanone], the midpoint of inhibition, the IC50, lay at 14.7 nM.
Turning to `CS(=O)(=O)c1cc(Cl)ccc1-c1ccc(C2CN(C(=O)N3CC4(CC(n5cnc(C6(O)CC6)n5)C4)C3)C2)cc1` [Example 396, [3-[4-(4-chloro-2-methylsulfonyl-phenyl)phenyl]azetidin-1-yl]-[6-[3-(1-hydroxycyclopropyl)-1,2,4-triazol-1-yl]-2-azaspiro[3.3]heptan-2-yl]methanone], 0.26 nM corresponded to half-maximal inhibition (IC50).
Regarding `O=C(N1CC(c2ccc(N3CC[C@H](C(F)(F)F)C3)nc2)C1)N1CC2(CC(n3cnc(C4(O)CC4)n3)C2)C1` [Example 397, [6-[3-(1-hydroxycyclopropyl)-1,2,4-triazol-1-yl]-2-azaspiro[3.3]heptan-2-yl]-[3-[6-[(3S)-3-(trifluoromethyl)pyrrolidin-1-yl]-3-pyridyl]azetidin-1-yl]methanone], half-maximal inhibition (IC50) was put at 14.4 nM.
Molecule `O=C(N1CC(OCc2ccc(S(=O)(=O)C(F)(F)F)cc2F)C1)N1CC2(CC(n3cnc(C4(O)CC4)n3)C2)C1` [Example 398, [3-[[2-fluoro-4-(trifluoromethylsulfonyl)phenyl]methoxy]azetidin-1-yl]-[6-[3-(1-hydroxycyclopropyl)-1,2,4-triazol-1-yl]-2-azaspiro[3.3]heptan-2-yl]methanone] registered an IC50 of 34.8 nM.
